Measurements reported in patent US20050221359A1, “Cospeptin, cosmedin and their uses” (The Board of Trustees of the Leland Stanford Junior …, priority 2004, published 2005).
Entries after “also recorded” stand apart in the source; their conditions may differ.

What was measured:
[1] = tested on: cospeptin receptors in the pituitary; test: Displacement of 125I-Tyr0-cospeptin E binding in pituitary (competition studies); parameters: species or system rat; conditions: competition with 125I-Tyr0-cospeptin E
Method: (§1) Radiolabeling of cospeptin. Peptide iodination was performed according to the IODO-GEN procedure (Pierce, Upland, Ind.). The mixture of Tyr0-cospeptin E (20 μg) and 1 mCi [^125I] Nal was transferred to precoated IODO-GEN vials before incubation at room temperature for 4 min. The ^125I-labeled peptide was applied to a Sep-Pak C18 cartridge (Waters, Milford, Mass.) for purification and was eluted with 60% acetonitrile/0.1%TFA. The purified tracer was stored at −20° C.
(§2) Receptor binding experiments. Homogenates were prepared from different tissues of adult rats. Binding assays were performed in glass tubes. Routinely, tissue homogenates were incubated in 100 μl of binding buffer (PBS with 0.1% bovine serum albumin) for 16 h at room temperature with varying concentrations of ^125I-Tyr0-cospeptin E (100, 000 cpm˜2 nM) in the presence or absence of unlabelled Tyr0-cospeptin E (in 5,000 fold excess). After incubation, the tubes were centrifuged for 10 min at 10,000×g, and the pellet was washed twice in ice-cold PBS. Finally, Tyr0-cospeptin E bound to the tissues was counted using a gamma-spectrophotometer. Specifically bound counts were calculated by subtracting unspecific counts determined in the presence of 5,000-fold excess of nonlabeled peptide from total counts bound to the tissues. For displacement ^125I-Tyr0-cospeptin E binding, increasing concentrations of Tyr0-cospeptin E or other peptides or analogues (cospeptin E, cospeptin A, cospeptin B, cospeptin D, cospeptin F or cosmedin B) were added.

[2] = tested on: normal Sprague-Dawley rats; test: Effects of cospeptin on blood pressure and heart rate (tail-cuff method); type: in vivo, rat; conditions: intraperitoneal administration, conscious normal rats
Method: Effects of cospeptin on blood pressure and heart rate in normal […] rats. Blood pressure measurements in conscious male Sprague-Dawley rats (7-9 weeks of age) were made in animals preadapted to the measurement procedure. Indirect systolic pressure was determined by a programmable NIBP system using the tail-cuff method (Columbus Instruments, Columbus, Ohio). Following attachment of the pressure transducer, rats were left undisturbed for 10 min before baseline measurements that spanned a 15-min interval. Following baseline measurements, rats were injected intraperitoneally with varying doses of hormones. Blood pressure and heart rate were monitored for 50 min at 25-sec intervals. Changes in blood pressure were calculated as the average of thirty measurements performed within each 5-min interval.

C57/BL6 male mice = test: Effects of peptides on gastric emptying activity; type: in vivo, mouse; conditions: intraperitoneal injection, fed mice, stomach weighed after treatment
Method: Effects of peptides on gastric emptying activity Eight-week-old C57/BL6 male mice deprived of food for 20 h were given food pellets for 90 min before intraperitoneal injection with different hormones or saline. After treatment, mice were deprived of food again and killed 90 min later. The stomach was excised at the pylorus and cardia before weighing. Gastric emptying was calculated by comparing the stomach weight of treated mice to the stomach weight of control mice killed at the time of hormone injection. The rates of gastric emptying were calculated by the formula (wet weight of stomach in fed animals killed at 0 h minus wet weight at […] after treatment/wet weight of stomach in fed animals killed at 0 h)×100.

rat ileal tissue strips = test: Ileum contraction assay (organ bath, ileal muscle strips); conditions: for muscle contraction of ileal strips: cumulative concentrations 10 nM to 10 μM; for magnitude of contraction relative to maximum response to muscarinic agonist 5-methylfurmethide: normalised to 5-methylfurmethide maximum
Method: Ileum contraction assay. Female rats (˜350 g) were euthanized with CO2 and the abdominal cavity was opened to expose the intestines. A 3-cm length of ileum was removed, cleared of any adhering tissue and longitudinal strips of ileal muscle (2×5 mm) were cut. On average, six preparations were obtained from each animal. The tissues were suspended in 20-ml organ baths containing Krebs-Henseleit solution maintained at 32° C. containing 2.5 mM Ca^2+ and gassed continuously with 95% O2/5% CO2. The tissues were placed under a loading tension of 1 g. The tissue was equilibrated for 90 min after which a dose response curve of the peptide of interest was obtained at 0.5 log unit cumulative incremental concentrations from 10 nM to 10 μM.

[3] = target: cospeptin E receptor in pituitary tissues; test: Saturation binding of 125I-Tyr0-cospeptin E to pituitary homogenate; conditions: saturation curve, rat pituitary gland
Method: as §1
as §2, with “For displacement ^125I-Tyr0-cospeptin E binding, increasing concentrations of Tyr0-cospeptin E or other peptides or analogues (cospeptin E, cospeptin A, cospeptin B, cospeptin D, cospeptin F or cosmedin B) were added.” left out

Substance | order of affinity to the cospeptin receptors [1] | blood pressure [2] | heart rate [2] | gastric emptying activity (C57/BL6 male mice) | further results
cospeptin A: human cospeptin Form A, SEQ ID NO: 6, FYPIYFRPLMRLEEYKKEQAINRAGIVQEDVQPPGLKVWSDPFG (KRNWTPQAMLYLKGAQGHRFISDQSRRK) | cospeptin E=Tyr0-cospeptin E>cospeptin A,B>>cospeptin F>>cosmedin | minimal effects | decreased heart rate |  | 
cospeptin B: human cospeptin Form B, SEQ ID NO: 7, PLMRLEEYKKEQAINRAGIVQEDVQPPGLKVWSDPFG (KRNWTPQAMLYLKGAQGRRFLSDQSRRK) | cospeptin E=Tyr0-cospeptin E>cospeptin A,B>>cospeptin F>>cosmedin | suppressed blood pressure |  | exhibited gastric emptying activities; also recorded: effectively inhibits gastric emptying | 
cospeptin F: human cospeptin Form F, SEQ ID NO: 11, VWSDPFG (FYPIYFRPLLRLEEYQKEQAVNRAGIVQEDVQPPGLKVWSDPFGRK; rat) | cospeptin E=Tyr0-cospeptin E>cospeptin A,B>>cospeptin F>>cosmedin |  |  |  | 
human cosmedin Form B, SEQ ID NO: 4, NWTPQAMLYLKGAQG; presumed amidated at carboxyl terminus [cosmedin B] | cospeptin E=Tyr0-cospeptin E>cospeptin A,B>>cospeptin F>>cosmedin |  |  | effectively inhibits gastric emptying | gastric emptying activity (C57/BL6 male mice; listed as cosmedin-B): suppressed gastric emptying activity in a dose-dependent manner; muscle contraction of ileal strips (rat ileal tissue strips): concentration dependent muscle contraction; muscle contraction of ileal strips (rat ileal tissue strips; listed as cosmedin-B): produced a concentration-dependent muscle contraction; also recorded: direct action of cosmedin-B on muscle contraction; magnitude of contraction relative to maximum response to muscarinic agonist 5-methylfurmethide (rat ileal tissue strips): comparable to that of the acetylcholine muscarinic receptor agonist 5-methylfurmethide; magnitude of contraction relative to maximum response to muscarinic agonist 5-methylfurmethide (rat ileal tissue strips; listed as cosmedin-B): comparable to that mediated by the muscarinic receptor stimulation; potency pA50 (rat ileal tissue strips; rat ileal tissue strips): 6.05±0.17
human cospeptin Form E, SEQ ID NO: 10, AGIVQEDVQPPGLKVWSDPFG [cospeptin E] | cospeptin E=Tyr0-cospeptin E>cospeptin A,B>>cospeptin F>>cosmedin | suppressed blood pressure | decreased heart rate |  | Kd [3]: 5 nM
